Laboratory results as given in the NIST ThermoML archive (doi:10.1021/je0601098).
Numbers after ± are expanded uncertainties.

What was measured:
[1] = mn = molality of the nth substance listed, in mol/kg; conditions: 298.15 K, 101 kPa, Liquid; for speed of sound: Linear variable-path acoustic interferometer
[2] = 298.15 K, 101 kPa, Liquid; for speed of sound: Linear variable-path acoustic interferometer

C1COCCO1 [1,4-dioxane] + O
[1]
Conditions | mass density [kg/m3] | speed of sound [m/s]
m2 = 0 | 1028.34 ± 0.38 | 1346.3 ± 1.9
m2 = 0.07165 | 1028.35 ± 0.38 | 1347.1 ± 1.9
m2 = 0.1214 | 1028.36 ± 0.38 | 1347.8 ± 1.9
m2 = 0.1625 | 1028.37 ± 0.38 | 1348.4 ± 1.9
m2 = 0.2272 | 1028.39 ± 0.38 | 1349.2 ± 1.9
m2 = 0.3262 | 1028.42 ± 0.38 | 1350 ± 1.9
m2 = 0.4214 | 1028.46 ± 0.38 | 1350.9 ± 1.9
m2 = 0.6512 | 1028.57 ± 0.38 | 1353 ± 1.9
m2 = 0.8375 | 1028.67 ± 0.38 | 1354.8 ± 1.9
m2 = 1.022 | 1028.78 ± 0.38 | 1356.5 ± 1.9

CN(C)C=O [dimethylformamide] + O
[1]
Conditions | mass density [kg/m3] | speed of sound [m/s]
m2 = 0 | 944.076 ± 0.39 | 1460.2 ± 2
m2 = 0.08457 | 944.384 ± 0.39 | 1461.1 ± 2
m2 = 0.1304 | 944.54 ± 0.39 | 1461.8 ± 2
m2 = 0.1738 | 944.701 ± 0.39 | 1462.4 ± 2
m2 = 0.2315 | 944.826 ± 0.39 | 1463.9 ± 2
m2 = 0.2762 | 945.027 ± 0.39 | 1464.1 ± 2
m2 = 0.3215 | 945.143 ± 0.39 | 1464.2 ± 2
m2 = 0.4146 | 945.584 ± 0.39 | 1465.5 ± 2
m2 = 0.5189 | 945.835 ± 0.39 | 1467.4 ± 2
m2 = 0.6115 | 946.263 ± 0.39 | 1468.1 ± 2
m2 = 0.7123 | 946.49 ± 0.39 | 1469.4 ± 2
m2 = 0.81 | 946.853 ± 0.39 | 1470.7 ± 2
m2 = 0.9044 | 947.103 ± 0.39 | 1472.3 ± 2
m2 = 1.001 | 947.417 ± 0.39 | 1473.3 ± 2

C1CCOC1 [tetrahydrofuran] + O
[1]
Conditions | mass density [kg/m3] | speed of sound [m/s]
m2 = 0 | 882.056 ± 0.47 | 1280.2 ± 1.9
m2 = 0.1301 | 882.394 ± 0.46 | 1281.2 ± 1.9
m2 = 0.1845 | 882.536 ± 0.46 | 1281.7 ± 1.9
m2 = 0.2263 | 882.674 ± 0.46 | 1282 ± 1.9
m2 = 0.244 | 882.753 ± 0.46 | 1282.4 ± 1.9
m2 = 0.3258 | 882.981 ± 0.46 | 1282.9 ± 1.9
m2 = 0.4247 | 883.242 ± 0.46 | 1283.2 ± 1.9
m2 = 0.525 | 883.543 ± 0.46 | 1283.9 ± 1.9
m2 = 0.6245 | 884.032 ± 0.46 | 1284.6 ± 1.9
m2 = 0.7309 | 884.381 ± 0.46 | 1285.1 ± 1.9
m2 = 0.8254 | 884.726 ± 0.46 | 1286 ± 1.9
m2 = 0.9243 | 885.015 ± 0.46 | 1287 ± 1.9
m2 = 1.029 | 885.427 ± 0.46 | 1288 ± 1.9

CCCO [propan-1-ol] + O
[1]
Conditions | mass density [kg/m3] | speed of sound [m/s]
m2 = 0 | 799.683 ± 0.56 | 1207 ± 1.9
m2 = 0.1627 | 800.472 ± 0.56 | 1209 ± 1.9
m2 = 0.217 | 800.732 ± 0.56 | 1209.9 ± 1.9
m2 = 0.2635 | 800.961 ± 0.56 | 1210.1 ± 1.9
m2 = 0.3129 | 801.185 ± 0.56 | 1211.5 ± 1.9
m2 = 0.4209 | 801.664 ± 0.56 | 1213 ± 1.9
m2 = 0.5137 | 802.083 ± 0.56 | 1213.4 ± 1.9
m2 = 0.6196 | 802.528 ± 0.56 | 1214.7 ± 1.9
m2 = 0.7183 | 802.982 ± 0.56 | 1215.8 ± 1.9
m2 = 0.8205 | 803.412 ± 0.56 | 1217.2 ± 1.9
m2 = 0.9191 | 803.833 ± 0.56 | 1218.1 ± 1.9
m2 = 1.005 | 804.252 ± 0.56 | 1219.3 ± 1.9

CCCCO [butan-1-ol]
[2]
Conditions | mass density [kg/m3] | speed of sound [m/s]
– | 806.024 ± 0.56 | 1241.6 ± 1.9

CCO [ethanol]
[2]
Conditions | mass density [kg/m3] | speed of sound [m/s]
– | 785.207 ± 0.58 | 1142.1 ± 1.8

C1CCOC1 [tetrahydrofuran]
[2]
Conditions | mass density [kg/m3] | speed of sound [m/s]
– | 882.056 ± 0.47 | 1280.2 ± 1.9

CO [methanol]
[2]
Conditions | mass density [kg/m3] | speed of sound [m/s]
– | 786.66 ± 0.58 | 1103.8 ± 1.8

CN(C)C=O [dimethylformamide]
[2]
Conditions | mass density [kg/m3] | speed of sound [m/s]
– | 944.076 ± 0.39 | 1460.2 ± 2

C1COCCO1 [1,4-dioxane]
[2]
Conditions | mass density [kg/m3] | speed of sound [m/s]
– | 1028.34 ± 0.38 | 1346.3 ± 1.9

CO [methanol] + O
[1]
Conditions | mass density [kg/m3] | speed of sound [m/s]
m2 = 0 | 786.66 ± 0.58 | 1103.8 ± 1.8
m2 = 0.1566 | 787.454 ± 0.58 | 1106 ± 1.8
m2 = 0.2143 | 787.724 ± 0.58 | 1106.2 ± 1.8
m2 = 0.2641 | 788.016 ± 0.58 | 1106.2 ± 1.8
m2 = 0.3211 | 788.308 ± 0.58 | 1107.2 ± 1.8
m2 = 0.4121 | 788.789 ± 0.58 | 1107.9 ± 1.8
m2 = 0.5085 | 789.27 ± 0.58 | 1109.8 ± 1.8
m2 = 0.6159 | 789.834 ± 0.58 | 1112.6 ± 1.8
m2 = 0.7089 | 790.308 ± 0.58 | 1113.4 ± 1.8
m2 = 0.8074 | 790.823 ± 0.58 | 1114.4 ± 1.8
m2 = 0.9136 | 791.368 ± 0.58 | 1117.1 ± 1.8
m2 = 1.018 | 791.86 ± 0.57 | 1118 ± 1.8

CCCCO [butan-1-ol] + O
[1]
Conditions | mass density [kg/m3] | speed of sound [m/s]
m2 = 0 | 806.024 ± 0.56 | 1241.6 ± 1.9
m2 = 0.1588 | 806.701 ± 0.56 | 1242.9 ± 1.9
m2 = 0.2034 | 806.906 ± 0.56 | 1243.3 ± 1.9
m2 = 0.2526 | 807.034 ± 0.56 | 1243.2 ± 1.9
m2 = 0.3019 | 807.215 ± 0.56 | 1243.6 ± 1.9
m2 = 0.3998 | 807.558 ± 0.56 | 1244.5 ± 1.9
m2 = 0.5007 | 807.906 ± 0.56 | 1246.2 ± 1.9
m2 = 0.6011 | 808.262 ± 0.56 | 1247 ± 1.9
m2 = 0.705 | 808.615 ± 0.55 | 1248 ± 1.9
m2 = 0.8032 | 808.946 ± 0.55 | 1248.8 ± 1.9
m2 = 0.9017 | 809.283 ± 0.55 | 1249.7 ± 1.9

CC#N [acetonitrile]
[2]
Conditions | mass density [kg/m3] | speed of sound [m/s]
– | 776.389 ± 0.59 | 1281.3 ± 1.9

CCCO [propan-1-ol]
[2]
Conditions | mass density [kg/m3] | speed of sound [m/s]
– | 799.683 ± 0.56 | 1207 ± 1.9

CC#N [acetonitrile] + O
[1]
Conditions | mass density [kg/m3] | speed of sound [m/s]
m2 = 0 | 776.389 ± 0.59 | 1281.3 ± 1.9
m2 = 0.1197 | 776.819 ± 0.59 | 1281.5 ± 1.9
m2 = 0.1729 | 777.019 ± 0.59 | 1282 ± 1.9
m2 = 0.2244 | 777.174 ± 0.59 | 1282.2 ± 1.9
m2 = 0.2674 | 777.435 ± 0.59 | 1282.4 ± 1.9
m2 = 0.3192 | 777.518 ± 0.59 | 1282.2 ± 1.9
m2 = 0.4188 | 777.923 ± 0.59 | 1282.6 ± 1.9
m2 = 0.5198 | 778.218 ± 0.59 | 1283 ± 1.9
m2 = 0.621 | 778.584 ± 0.59 | 1284 ± 1.9
m2 = 0.7217 | 778.921 ± 0.59 | 1284.3 ± 1.9
m2 = 0.8212 | 779.276 ± 0.59 | 1284.7 ± 1.9
m2 = 0.9205 | 779.631 ± 0.59 | 1285.5 ± 1.9
m2 = 1.02 | 779.949 ± 0.59 | 1286.5 ± 1.9

CCO [ethanol] + O
[1]
Conditions | mass density [kg/m3] | speed of sound [m/s]
m2 = 0 | 785.207 ± 0.58 | 1142.1 ± 1.8
m2 = 0.214 | 786.407 ± 0.58 | 1144.6 ± 1.8
m2 = 0.2705 | 786.72 ± 0.58 | 1145.9 ± 1.8
m2 = 0.3199 | 786.998 ± 0.58 | 1146.8 ± 1.8
m2 = 0.3659 | 787.262 ± 0.58 | 1148.6 ± 1.8
m2 = 0.4543 | 787.753 ± 0.58 | 1151 ± 1.8
m2 = 0.5541 | 788.3 ± 0.58 | 1153.2 ± 1.8
m2 = 0.6437 | 788.782 ± 0.58 | 1154.8 ± 1.8
m2 = 0.743 | 789.321 ± 0.58 | 1156.4 ± 1.8
m2 = 0.8349 | 789.775 ± 0.58 | 1157.7 ± 1.8
m2 = 0.9264 | 790.279 ± 0.58 | 1159.5 ± 1.8
m2 = 1.019 | 790.734 ± 0.58 | 1160.1 ± 1.8
